Some test systems named below: MDA-MB-435; LOX IMVI; DU-145; NCI-H226; SF-539; 786-0; CCRF-CEM; NCI-H23; HOP-92; HCC 2998; SN12C; TK-10; NCI/ADR-RES; ACHN; OVCAR-4; U-251; M14; UACC-62; HL-60.
Common to all, as to assay: NCI tumour cell line growth inhibition, 48 h

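Step 1: Grow cells in 96-well plates. Step 2: Expose to compound for 48 hours at 5 concentrations. Step 3: Interpolate endpoints linearly; if unreached, use highest concentration. Abbreviation: GI50, concentration required for 50% inhibition of growth.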 Activity calls are given as the source filed them. Cut-off read from the data, not from the text of the source: active = GI50 up to about 1.1 µM and inactive = higher.

Consider `CC(=O)ON(C(C)=O)c1ccc(-c2nc3ccccc3s2)cc1C`, for which the GI50 is 60.3 µM (inactive) in the experiment with MDA-MB-435; 37.4 µM (inactive) with LOX IMVI; 37.7 µM (inactive) with DU-145; 2.6 µM (inactive) in the experiment with NCI-H226; 41 µM (inactive) in the experiment with SF-539; 60 µM (inactive) in the experiment with 786-0. Besides, the GI50 in the experiment with CCRF-CEM is 23.7 µM (inactive); with NCI-H23, 52.7 µM (inactive); in the experiment on HOP-92 it was 43.6 µM (inactive); in the experiment on HCC 2998 it was 67.6 µM (inactive); in the experiment with SN12C it was 31 µM (inactive); with TK-10 it was 2.96 µM (inactive). Moreover, the GI50 in the experiment on NCI/ADR-RES was 21.3 µM (inactive); in the experiment on ACHN it was 32.6 µM (inactive); in the experiment on OVCAR-4 it was 51.4 µM (inactive); in the experiment with U-251 it was 10.4 µM (inactive); in the experiment on M14, 59 µM (inactive); with UACC-62, 44.3 µM (inactive).
On to `Cc1ccc(S(=O)(=O)Nn2c(S)c(C#N)c(-c3ccc(Cl)cc3)c(C#N)c2=O)cc1`, for which the GI50 is 27.1 µM (inactive) in the experiment on MDA-MB-435; 29.9 µM (inactive) in the experiment with LOX IMVI; 52.2 µM (inactive) with DU-145; 16.4 µM (inactive) with NCI-H226; 19.6 µM (inactive) in the experiment on SF-539; 32.6 µM (inactive) in the experiment on 786-0. The GI50 with CCRF-CEM was 7.93 µM (inactive); in the experiment with NCI-H23, 30 µM (inactive); in the experiment with HOP-92 it was 59 µM (inactive); in the experiment with HCC 2998, 38.8 µM (inactive); in the experiment with SN12C it was 25.7 µM (inactive); with TK-10 it was 25.6 µM (inactive). In addition, the GI50 in the experiment on NCI/ADR-RES was 27.5 µM (inactive); with ACHN it was 31.6 µM (inactive); in the experiment on OVCAR-4 it was 15.1 µM (inactive); in the experiment on U-251, 22.2 µM (inactive); in the experiment on HL-60 it was 23 µM (inactive); in the experiment with M14, 38.1 µM (inactive). For the same compound, the GI50 in the experiment with UACC-62 was 27.7 µM (inactive).
Turning to `Cc1cc(C)c(S(=O)(=O)N2CCCN(S(=O)(=O)c3c(C)cc(C)cc3C)OCCCON(S(=O)(=O)c3c(C)cc(C)cc3C)CCCN(S(=O)(=O)c3c(C)cc(C)cc3C)OCCCO2)c(C)c1`, the GI50 in the experiment with MDA-MB-435, in the experiment on LOX IMVI, with DU-145, with NCI-H226, with SF-539 and in the experiment on 786-0 was > 100 µM (inactive) each time. Also, the GI50 in the experiment on CCRF-CEM was > 100 µM (inactive); in the experiment with NCI-H23, > 100 µM (inactive); with HOP-92, 36.1 µM (inactive); in the experiment with HCC 2998, > 100 µM (inactive); in the experiment on TK-10, > 100 µM (inactive); in the experiment with NCI/ADR-RES it was > 100 µM (inactive). Also, the GI50 in the experiment with ACHN was > 100 µM (inactive); in the experiment on OVCAR-4, > 100 µM (inactive); in the experiment on U-251, > 100 µM (inactive); in the experiment with HL-60, 46.6 µM (inactive); in the experiment on M14, > 100 µM (inactive); in the experiment with UACC-62, > 100 µM (inactive).
Consider `COc1cc2c(cc1OC)C(OC)N(C)c1c-2ccc2cc3c(cc12)OCO3` (centres undefined), for which the GI50 with MDA-MB-435 was 69 µM (inactive); in the experiment on LOX IMVI, 5.36 µM (inactive); in the experiment on DU-145, 2.26 µM (inactive); with NCI-H226, 1.11 µM (active); with SF-539 it was 1.75 µM (inactive); in the experiment with 786-0 it was 1.86 µM (inactive). Moreover, the GI50 is 0.653 µM (active) with CCRF-CEM; 1.67 µM (inactive) in the experiment with NCI-H23; 2.19 µM (inactive) in the experiment on HOP-92; 1.65 µM (inactive) in the experiment on HCC 2998; 0.813 µM (active) in the experiment on SN12C; 6.75 µM (inactive) in the experiment with TK-10. For the same compound, the GI50 is 26.8 µM (inactive) in the experiment with NCI/ADR-RES; 4.69 µM (inactive) in the experiment with ACHN; 4.93 µM (inactive) in the experiment with OVCAR-4; 0.356 µM (active) in the experiment with U-251; 2.22 µM (inactive) in the experiment with HL-60; 3.3 µM (inactive) in the experiment on M14. In addition, the GI50 in the experiment on UACC-62 was 0.8 µM (active).

Source of the values: ChEMBL document CHEMBL1201862, “PubChem BioAssay data set” (2004).
